Measured values: US11786132B2, “Systems and methods for predicting arousal to consciousness during general anesthesia and sedation” (The General Hospital Corporation, priority 2011, dated 2023)
Where “and” joins values, the source holds several entries; their conditions need not be identical. Identical values can stand only once. Like-named read-outs stand apart in the source and are kept apart here.

How the values were obtained:
healthy volunteers [1] = system: healthy volunteers
Procedure: (§1) These studies were approved by the Human Research Committee at the Massachusetts General Hospital. All subjects provided informed consent and were American Society of Anesthesiology Physical Status I with Mallampati Class I airway anatomy. […] We administered a urine pregnancy test for each female subject to confirm that they were not pregnant. Before the start of the study, we required subjects to take nothing by mouth for at least 8 hours. […] We maintained each target effect-site concentration level for 14 min. […] Volunteers were instructed to close their eyes throughout the study to avoid eye-blink artifacts in the electroencephalogram. Volunteers were presented with auditory stimuli during the study and asked to respond by button presses to assess the level of conscious behavior. […] Verbal stimuli consisted either of the subject's name or a word randomized with an equal number of name or word stimuli at each level. The click train was delivered binaurally, with 40-Hz clicks in the left ear and 84-Hz clicks in the right ear. Subjects were instructed to press one button if they heard their name and to press the other button if they heard any other stimulus. Stimuli were recorded at a sampling rate of 44.1 kHz and were presented using Presentation software (Neurobehavioral Systems, Inc., Berkeley, Calif.) with ear-insert headphones (ER2; Etymotic Research, Elk Grove Village, Ill.) at ˜81 decibels peak sound pressure level. Button-press stimuli were recorded using a custom-built computer mouse with straps fitted to hold the first and second fingers in place over the mouse buttons. The mouse was also lightly strapped to the subject's hand using tape and an arterial line board to ensure that responses could be recorded accurately.
(§2) An anti-aliasing filter was applied and the EEG data was downsampled to 250 Hz before analysis. EEG signals were re-montaged to a nearest-neighbor Laplacian reference, using distances along the scalp surface to weigh neighboring electrode contributions.
(§3) First, 2-minute EEG segments were selected from all subjects during the awake, eyes closed baseline. Eye closure facilitates distinguishing between normal awake, eyes-closed occipital alpha oscillations and the frontal alpha oscillations associated with anesthesia induced altered arousal.
(§4) Electroencephalogram data segments were selected based on the behavioral response.
(§5) For each volunteer subject, TM electroencephalogram epochs were chosen that occurred within the first 2-minutes of the onset of this pattern. […] For each volunteer subject, PM electroencephalogram epochs were chosen that occurred within the first 2-minutes of the onset of this pattern.
The power spectral density, also referred to as the power spectrum or spectrum, quantifies the frequency distribution of energy or power within a signal. The spectrogram is a time-varying version of the spectrum. […] In these spectrograms, frequencies are arranged along the y-axis, and time along the x-axis, and power is indicated by color on a decibel (dB) scale. […] Spectra and spectrograms were computed using the multitaper method, implemented in the Chronux toolbox.
Group-level spectrograms were computed by taking the median across volunteers.

[2] = system: patients undergoing light sedation with dexmedetomidine, sedation with propofol and general anesthesia with propofol; conditions: intraoperative frontal EEG
healthy volunteers [3] = system: healthy volunteers; remark: listed apart in the source
Procedure: as §1, §2, §3, §4, §5
The coherence quantifies the degree of correlation between two signals at a given frequency. […] The coherence Cxy(f) function between two signals x and y is defined as:
[formula] where Sxy(f) is the cross-spectrum between the signals x(t) and y(t), Sxx(f) is the power spectrum of the signal x(t) and Syy(f) is the power spectrum of the signal y(t). Similar to the spectrum and spectrogram, the coherence can be estimated as a time-varying quantity called the coherogram.

healthy volunteers [4] = system: healthy volunteers; remark: listed apart in the source
Procedure: as §1, §4, §5

[5] = Plethysmography and blood gas experiments; conditions: in vivo
Text: For example, in accordance with one aspect of the present disclosure, methylphenidate (MPH) can be used as an inhibitor of dopamine and norepinephrine reuptake transporters and actively induces emergence from isoflurane general anesthesia. MPH can be used to restore consciousness, induce electroencephalogram changes consistent with arousal, and increase respiratory drive. The behavioral and respiratory effects induced by methylphenidate can be inhibited by droperidol, supporting the evidence that methylphenidate induces arousal by activating a dopaminergic arousal pathway.

[6] = system: patients undergoing general anesthesia; assay: Intra-operative EEG during general anesthesia with sevoflurane as primary maintenance agent; assay type: in vivo, human
Procedure: In addition, to study the relationship between EEG dynamics in context of potential neural circuit mechanisms of an anesthetic vapor, intra-operative EEG were recorded from patients undergoing general anesthesia with sevoflurane as the primary maintenance agent, which is an ether derivative commonly used to maintain GA. […] Connectivity analysis was then performed on the EEG dynamics postulated to be involved in anesthesia-induce depression in consciousness. […] These observed similarities are consistent with present understanding of how EEG features relate to anesthesia-induced depression of consciousness, and provide a framework for further experimental studies on the neural circuit mechanisms of general anesthesia.

[7] = dexmedetomidine-induced unconsciousness
[8] = propofol-induced unconsciousness (PM)
[9] = propofol-induced unconsciousness (TM)
[10] = Propofol-induced unconsciousness (PM) epoch
[11] = Propofol-induced unconsciousness (TM) epoch

For `Cc1cccc([C@H](C)c2cnc[nH]2)c1C` [dexmedetomidine], the slow oscillation power (healthy volunteers [1]; [7]) was −0.4 dB, the “frequency range where EEG power was larger than propofol-induced unconsciousness (TM)” value (healthy volunteers [1]; dexmedetomidine-induced unconsciousness vs propofol TM, P<0.0005, TGTS) was 0.7-10 Hz and the “frequency range of increased power in spectrogram compared to baseline” value (healthy volunteers [1]; dexmedetomidine-induced unconsciousness, FIGS. 9A, 9B) was 2-15 Hz. For the same compound, the “frequency range where EEG power was lower than baseline” value (healthy volunteers [1]; dexmedetomidine-induced unconsciousness, beta/gamma, P<0.001, TGTS) was 21.2-40 Hz, the “dex-spindle oscillation peak frequency (EEG power)” value (healthy volunteers [1]; dexmedetomidine-induced unconsciousness, mean±std) was 12.9 Hz and ~13 Hz and the “coherence of 0.1-1 Hz slow oscillations compared to propofol slow oscillations” value [2] was “greater coherence”. The “coherence of 8-12 Hz oscillations compared to propofol induced oscillations” value [2] was “less coherence”, the “coherence peak frequency (dex-spindle)” value (healthy volunteers [3]; [7]) was 13.4 Hz and ~13 Hz and the “peak coherence (dex-spindle)” value (healthy volunteers [3]; [7]) was 0.78±0.08. For the same compound, the “slow oscillation coherence compared to the awake-state” value (healthy volunteers [3]; [7]) was “non-significant decrease”, the “frequency range where coherence was significantly larger than propofol-induced unconsciousness (PM)” value (healthy volunteers [3]; dexmedetomidine-induced unconsciousness vs propofol PM, FIG. 15B, P<0.0005, TGTC) was 12.9-15.4 Hz and the “frequency range of decrease in coherence on coherogram” value (healthy volunteers [3]; dexmedetomidine-induced unconsciousness, FIG. 12B) was 0.1-1 Hz. For the same compound, the “frequency range of significant differences in coherence vs baseline” value (healthy volunteers [3]; dexmedetomidine-induced unconsciousness, FIG. 12C, P<0.001, TGTC) was 2.4-18.8 Hz, the “frequency range of increase in coherence on coherogram” value (healthy volunteers [3]; dexmedetomidine-induced unconsciousness, FIGS. 12A, 12B) was 1-15 Hz and the “Behavioral State” value (healthy volunteers [4]; Dexmedetomidine-induced unconsciousness epoch) was “Sedation”.

With `COC(=O)C(c1ccccc1)C1CCCCN1` (stereo not drawn) [methylphenidate] the minute ventilation [5] was “increases minute ventilation”.

In the case of `CC(C)c1cccc(C(C)C)c1O` [propofol], the “propofol effect site concentrations over which the signature is stably maintained” value (healthy volunteers [1]; PM pattern) is reported as 3 to 5 µg/mL, the “frequency range where PM oscillations were significantly larger than TM” value (healthy volunteers [1]; propofol PM vs TM, FIG. 10F, P<0.0003, TGTS) is reported as 0.1-13.4 Hz and the “alpha oscillation peak frequency (EEG power)” value (healthy volunteers [1]; [8]) is reported as 10.8 Hz. For the same compound, the “frontal alpha oscillation peak power” value (healthy volunteers [1]; [8]) was 1.1 dB, the slow oscillation power (healthy volunteers [1]; [8]) was 13.2 dB and the “amplitude of slow oscillations, PM relative to TM and the baseline state” value (healthy volunteers [1]; propofol-induced unconsciousness (PM) vs (TM)) was “approximately 6 fold”. The “amplitude of alpha oscillations, propofol PM relative to dexmedetomidine spindle oscillations” value (healthy volunteers [1]; propofol-induced unconsciousness (PM) vs dexmedetomidine) was “approximately 3.9 fold”, the “frequency range where EEG power was significantly larger than dexmedetomidine-induced unconsciousness” value (healthy volunteers [1]; propofol-induced unconsciousness (PM) vs dexmedetomidine, P<0.0005, TGTS) was 0.1-40 Hz and the “frequency range where EEG power was significantly larger than baseline” value (healthy volunteers [1]; propofol-induced unconsciousness (PM), FIG. 10E, P<0.0003, TGTS) was 0.1-40 Hz. The “broad-band frequency range of increased power in spectrogram” value (healthy volunteers [1]; [9]) was 1-25 Hz, the slow oscillation power (healthy volunteers [1]; [9]) was −2.5 dB and the “frequency range where EEG power was larger than dexmedetomidine-induced unconsciousness” value (healthy volunteers [1]; propofol-induced unconsciousness (TM) vs dexmedetomidine, P<0.0005, TGTS) was 14.9-40 Hz. For the same compound, the “propofol effect site concentrations over which the signature is stably maintained” value (healthy volunteers [1]; trough max (TM) pattern) was 1 to 2 µg/mL, the “time after loss of consciousness to which the trough-max pattern extends” value (healthy volunteers [1]; trough-max pattern) was roughly 10 min and the “time before loss of consciousness at which the trough-max pattern begins” value (healthy volunteers [1]; trough-max pattern) was roughly 20 min. For the same compound, the “alpha oscillation coherence peak frequency” value (healthy volunteers [3]; [8]) was 10.8 Hz, the “alpha oscillation peak coherence” value (healthy volunteers [3]; [8]) was 0.89±0.05 and the “slow oscillation coherence compared to baseline” value (healthy volunteers [3]; [8]) was “non-significant decrease”. The “frequency range of decrease in coherence on coherogram” value (healthy volunteers [3]; propofol-induced unconsciousness (PM), FIG. 13C) was 0.1-1 Hz, the “frequency range of significant increase in coherence vs baseline” value (healthy volunteers [3]; propofol-induced unconsciousness (PM), FIG. 13E, P<0.0003, TGTC) was 3.9-15.1 Hz and the “alpha oscillation coherence peak frequency” value (healthy volunteers [3]; propofol-induced unconsciousness (PM), listed as Propofol) was roughly 10 Hz. The “broad frequency range of increase in coherence on coherogram” value (healthy volunteers [3]; [9]) was 1-25 Hz, the “frequency range where coherence was larger than dexmedetomidine-induced unconsciousness” value (healthy volunteers [3]; propofol-induced unconsciousness (TM) vs dexmedetomidine, FIG. 15A, P<0.0005, TGTC) was 17.3-25.9 Hz and the “frequency ranges where oscillations were coherent vs baseline” value (healthy volunteers [3]; propofol-induced unconsciousness (TM), FIG. 13D, P<0.0003, TGTC) was 10.7-15.4 Hz and 17.3-25.9 Hz. For the same compound, the “Behavioral State” value (healthy volunteers [4]; [10]) was “General”, the “Probability of Response to Verbal Stimuli (%) mean (±SD)” value (healthy volunteers [4]; [10]) was 0% and the “Behavioral State” value (healthy volunteers [4]; [11]) was “Sedation”. The “Probability of Response to Verbal Stimuli (%) mean (±SD)” value (healthy volunteers [4]; [11]) was 91.5 (15.4) %.

In the case of `FCOC(C(F)(F)F)C(F)(F)F` [sevoflurane], the “macroscopic EEG dynamics during GA induced unconsciousness” value [6] is reported as “closely resemble those of propofol”.
